Assay results as given in PMC7156458, “Synthetic biology based construction of biological activity-related library of fungal decalin-containing diterpenoid pyrones” (Nature Communications, 2020).

Molecular target: Aβ42 (Homo sapiens, UniProt P05067)
Assay: Th-T (thioflavin-T) assay of Aβ42 aggregation
Type: biochemical
Conditions: for Th-T fluorescence of Aβ42 (sheet Fig. 7a), mean of three wells: head suffix _50 (concentration 50); for Th-T assay plate reading, mean of three wells (Supplementary Fig. 47): source data, Ab alone and No Ab as controls; for Th-T fluorescence, mean of three wells: Supplementary Fig. 47 source data

Aβ42, sequence (P05067 672-713): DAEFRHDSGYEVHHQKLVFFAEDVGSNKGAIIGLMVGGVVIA

C=C1CC[C@@H]2[C@](C)(CC[C@H]3O[C@H](C=C(C)C)C[C@@]23C)[C@@H]1Cc1c(OC)oc(CO)c(C(=O)OC)c1=O [Compound 21]
Th-T fluorescence of Aβ42 (sheet Fig. 7a), mean of three wells (reading M73): 0.2746 | Th-T fluorescence of Aβ42 (sheet Fig. 7a), mean of three wells (reading M74): 0.2806 | Th-T fluorescence of Aβ42 (sheet Fig. 7a), mean of three wells (reading M75): 0.286 | Th-T fluorescence of Aβ42 (sheet Fig. 7a), mean of three wells (reading M76): 0.2937 | Th-T fluorescence of Aβ42 (sheet Fig. 7a), mean of three wells (reading M77): 0.3019 | Th-T fluorescence of Aβ42 (sheet Fig. 7a), mean of three wells (reading M78): 0.3119 | Th-T fluorescence of Aβ42 (sheet Fig. 7a), mean of three wells (reading M79): 0.3191 | Th-T fluorescence of Aβ42 (sheet Fig. 7a), mean of three wells (reading M80): 0.3266 | Th-T fluorescence of Aβ42 (sheet Fig. 7a), mean of three wells (reading M81): 0.339 | Th-T fluorescence of Aβ42 (sheet Fig. 7a), mean of three wells (reading M82): 0.3487 | Th-T fluorescence of Aβ42 (sheet Fig. 7a), mean of three wells (reading M83): 0.3612 | Th-T fluorescence of Aβ42 (sheet Fig. 7a), mean of three wells (reading M84): 0.3714 | Th-T assay plate reading, mean of three wells (Supplementary Fig. 47) (measurement M1): 0.221 | Th-T assay plate reading, mean of three wells (Supplementary Fig. 47) (measurement M2): 0.2228 | Th-T assay plate reading, mean of three wells (Supplementary Fig. 47) (measurement M3): 0.2221 | Th-T assay plate reading, mean of three wells (Supplementary Fig. 47) (measurement M4): 0.222 | Th-T assay plate reading, mean of three wells (Supplementary Fig. 47) (measurement M5): 0.2108 | Th-T assay plate reading, mean of three wells (Supplementary Fig. 47) (measurement M6): 0.2062 | Th-T assay plate reading, mean of three wells (Supplementary Fig. 47) (measurement M7): 0.1997 | Th-T assay plate reading, mean of three wells (Supplementary Fig. 47) (measurement M8): 0.1959 | Th-T assay plate reading, mean of three wells (Supplementary Fig. 47) (measurement M9): 0.193 | Th-T assay plate reading, mean of three wells (Supplementary Fig. 47) (measurement M10): 0.1931 | Th-T assay plate reading, mean of three wells (Supplementary Fig. 47) (measurement M11): 0.1918 | Th-T assay plate reading, mean of three wells (Supplementary Fig. 47) (measurement M12): 0.1925 | Th-T assay plate reading, mean of three wells (Supplementary Fig. 47) (measurement M13): 0.1929 | Th-T assay plate reading, mean of three wells (Supplementary Fig. 47) (measurement M14): 0.1925 | Th-T assay plate reading, mean of three wells (Supplementary Fig. 47) (measurement M15): 0.1938 | Th-T assay plate reading, mean of three wells (Supplementary Fig. 47) (measurement M16): 0.1946 | Th-T fluorescence, mean of three wells (Fig. 7a) (reading M107, compound at 10 (head suffix _10)): 1.6819 | Th-T fluorescence, mean of three wells (Fig. 7a) (reading M107, compound at 20 (head suffix _20)): 0.9322 | Th-T fluorescence, mean of three wells (Fig. 7a) (reading M107, compound at 50 (head suffix _50)): 0.4795 | Th-T fluorescence, mean of three wells (Fig. 7a) (reading M108, compound at 10 (head suffix _10)): 1.643 | Th-T fluorescence, mean of three wells (Fig. 7a) (reading M108, compound at 20 (head suffix _20)): 0.9316 | Th-T fluorescence, mean of three wells (Fig. 7a) (reading M108, compound at 50 (head suffix _50)): 0.4805 | Th-T fluorescence, mean of three wells (Fig. 7a) (reading M109, compound at 10 (head suffix _10)): 1.641 | Th-T fluorescence, mean of three wells (Fig. 7a) (reading M109, compound at 20 (head suffix _20)): 0.9416 | Th-T fluorescence, mean of three wells (Fig. 7a) (reading M109, compound at 50 (head suffix _50)): 0.4841 | Th-T fluorescence, mean of three wells (Fig. 7a) (reading M110, compound at 10 (head suffix _10)): 1.6563 | Th-T fluorescence, mean of three wells (Fig. 7a) (reading M110, compound at 20 (head suffix _20)): 0.9358 | Th-T fluorescence, mean of three wells (Fig. 7a) (reading M110, compound at 50 (head suffix _50)): 0.4823 | Th-T fluorescence, mean of three wells (Fig. 7a) (reading M111, compound at 10 (head suffix _10)): 1.67 | Th-T fluorescence, mean of three wells (Fig. 7a) (reading M111, compound at 20 (head suffix _20)): 0.9311 | Th-T fluorescence, mean of three wells (Fig. 7a) (reading M111, compound at 50 (head suffix _50)): 0.4866 | Th-T fluorescence, mean of three wells (Fig. 7a) (reading M112, compound at 10 (head suffix _10)): 1.658 | Th-T fluorescence, mean of three wells (Fig. 7a) (reading M112, compound at 20 (head suffix _20)): 0.9334 | Th-T fluorescence, mean of three wells (Fig. 7a) (reading M112, compound at 50 (head suffix _50)): 0.4858 | Th-T fluorescence, mean of three wells (Fig. 7a) (reading M113, compound at 10 (head suffix _10)): 1.671 | Th-T fluorescence, mean of three wells (Fig. 7a) (reading M113, compound at 20 (head suffix _20)): 0.9626 | Th-T fluorescence, mean of three wells (Fig. 7a) (reading M113, compound at 50 (head suffix _50)): 0.4847 | Th-T fluorescence, mean of three wells (Fig. 7a) (reading M114, compound at 10 (head suffix _10)): 1.656 | Th-T fluorescence, mean of three wells (Fig. 7a) (reading M114, compound at 20 (head suffix _20)): 0.941 | Th-T fluorescence, mean of three wells (Fig. 7a) (reading M114, compound at 50 (head suffix _50)): 0.488 | Th-T fluorescence, mean of three wells (Fig. 7a) (reading M115, compound at 10 (head suffix _10)): 1.673 | Th-T fluorescence, mean of three wells (Fig. 7a) (reading M115, compound at 20 (head suffix _20)): 0.9605 | Th-T fluorescence, mean of three wells (Fig. 7a) (reading M115, compound at 50 (head suffix _50)): 0.4915 | Th-T fluorescence, mean of three wells (Fig. 7a) (reading M116, compound at 10 (head suffix _10)): 1.71 | Th-T fluorescence, mean of three wells (Fig. 7a) (reading M116, compound at 20 (head suffix _20)): 0.9595 | Th-T fluorescence, mean of three wells (Fig. 7a) (reading M116, compound at 50 (head suffix _50)): 0.4913 | Th-T fluorescence, mean of three wells (Fig. 7a) (reading M117, compound at 10 (head suffix _10)): 1.657 | Th-T fluorescence, mean of three wells (Fig. 7a) (reading M117, compound at 20 (head suffix _20)): 0.9521 | Th-T fluorescence, mean of three wells (Fig. 7a) (reading M117, compound at 50 (head suffix _50)): 0.4909 | Th-T fluorescence, mean of three wells (Fig. 7a) (reading M118, compound at 10 (head suffix _10)): 1.7 | Th-T fluorescence, mean of three wells (Fig. 7a) (reading M118, compound at 20 (head suffix _20)): 0.9478 | Th-T fluorescence, mean of three wells (Fig. 7a) (reading M118, compound at 50 (head suffix _50)): 0.4918 | Th-T fluorescence, mean of three wells (Fig. 7a) (reading M119, compound at 10 (head suffix _10)): 1.686 | Th-T fluorescence, mean of three wells (Fig. 7a) (reading M119, compound at 20 (head suffix _20)): 0.9445 | Th-T fluorescence, mean of three wells (Fig. 7a) (reading M119, compound at 50 (head suffix _50)): 0.4929 | Th-T fluorescence, mean of three wells (Fig. 7a) (reading M120, compound at 10 (head suffix _10)): 1.675 | Th-T fluorescence, mean of three wells (Fig. 7a) (reading M120, compound at 20 (head suffix _20)): 0.9469 | Th-T fluorescence, mean of three wells (Fig. 7a) (reading M120, compound at 50 (head suffix _50)): 0.4937 | Th-T fluorescence, mean of three wells (Fig. 7a) (reading M121, compound at 10 (head suffix _10)): 1.7005 | Th-T fluorescence, mean of three wells (Fig. 7a) (reading M121, compound at 20 (head suffix _20)): 0.9507 | Th-T fluorescence, mean of three wells (Fig. 7a) (reading M121, compound at 50 (head suffix _50)): 0.4951 | Th-T fluorescence, mean of three wells (Fig. 7a) (reading M122, compound at 10 (head suffix _10)): 1.701 | Th-T fluorescence, mean of three wells (Fig. 7a) (reading M122, compound at 20 (head suffix _20)): 0.9556 | Th-T fluorescence, mean of three wells (Fig. 7a) (reading M122, compound at 50 (head suffix _50)): 0.493 | Th-T fluorescence, mean of three wells (Fig. 7a) (reading M123, compound at 10 (head suffix _10)): 1.651 | Th-T fluorescence, mean of three wells (Fig. 7a) (reading M123, compound at 20 (head suffix _20)): 0.9514 | Th-T fluorescence, mean of three wells (Fig. 7a) (reading M123, compound at 50 (head suffix _50)): 0.4951 | Th-T fluorescence, mean of three wells (Fig. 7a) (reading M124, compound at 10 (head suffix _10)): 1.705 | Th-T fluorescence, mean of three wells (Fig. 7a) (reading M124, compound at 20 (head suffix _20)): 0.9577 | Th-T fluorescence, mean of three wells (Fig. 7a) (reading M124, compound at 50 (head suffix _50)): 0.4977 | Th-T fluorescence, mean of three wells (Fig. 7a) (reading M125, compound at 10 (head suffix _10)): 1.692 | Th-T fluorescence, mean of three wells (Fig. 7a) (reading M125, compound at 20 (head suffix _20)): 0.9599 | Th-T fluorescence, mean of three wells (Fig. 7a) (reading M125, compound at 50 (head suffix _50)): 0.4931 | Th-T fluorescence, mean of three wells (Fig. 7a) (reading M126, compound at 10 (head suffix _10)): 1.704 | Th-T fluorescence, mean of three wells (Fig. 7a) (reading M126, compound at 20 (head suffix _20)): 0.9491 | Th-T fluorescence, mean of three wells (Fig. 7a) (reading M126, compound at 50 (head suffix _50)): 0.4978 | Th-T fluorescence, mean of three wells (Fig. 7a) (reading M127, compound at 10 (head suffix _10)): 1.72 | Th-T fluorescence, mean of three wells (Fig. 7a) (reading M127, compound at 20 (head suffix _20)): 0.9533 | Th-T fluorescence, mean of three wells (Fig. 7a) (reading M127, compound at 50 (head suffix _50)): 0.4965 | Th-T fluorescence, mean of three wells (Fig. 7a) (reading M128, compound at 10 (head suffix _10)): 1.676 | Th-T fluorescence, mean of three wells (Fig. 7a) (reading M128, compound at 20 (head suffix _20)): 0.9486 | Th-T fluorescence, mean of three wells (Fig. 7a) (reading M128, compound at 50 (head suffix _50)): 0.4971 | Th-T fluorescence, mean of three wells (time-course reading M97): 1.027 | Th-T fluorescence, mean of three wells (time-course reading M98): 1.0353 | Th-T fluorescence, mean of three wells (time-course reading M99): 1.027 | Th-T fluorescence, mean of three wells (time-course reading M100): 1.023 | Th-T fluorescence, mean of three wells (time-course reading M101): 1.038 | Th-T fluorescence, mean of three wells (time-course reading M102): 1.048 | Th-T fluorescence, mean of three wells (time-course reading M103): 1.038 | Th-T fluorescence, mean of three wells (time-course reading M104): 1.045 | Th-T fluorescence, mean of three wells (time-course reading M105): 1.028 | Th-T fluorescence, mean of three wells (time-course reading M106): 1.044 | Th-T fluorescence, mean of three wells (time-course reading M107): 1.045 | Th-T fluorescence, mean of three wells (time-course reading M108): 1.036 | Th-T fluorescence, mean of three wells (time-course reading M109): 1.034 | Th-T fluorescence, mean of three wells (time-course reading M110): 1.043 | Th-T fluorescence, mean of three wells (time-course reading M111): 1.041 | Th-T fluorescence, mean of three wells (time-course reading M112): 1.036 | Th-T fluorescence, mean of three wells (time-course reading M113): 1.022 | Th-T fluorescence, mean of three wells (time-course reading M114): 1.039 | Th-T fluorescence, mean of three wells (time-course reading M115): 1.052 | Th-T fluorescence, mean of three wells (time-course reading M116): 1.042
